Here are results for 23 compounds from patent publication US20260258050A1, “IMMUNOMODULATOR” (HITGEN INC., priority 2023, published 2026).

The term IC50 denotes the midpoint of a concentration-inhibition curve.

Bounds are passed on as bounds.

In this test the target is T1, Human IL-17A (Homo sapiens, UniProt Q16552).
T1 sequence (Q16552 20-155 limits assumed): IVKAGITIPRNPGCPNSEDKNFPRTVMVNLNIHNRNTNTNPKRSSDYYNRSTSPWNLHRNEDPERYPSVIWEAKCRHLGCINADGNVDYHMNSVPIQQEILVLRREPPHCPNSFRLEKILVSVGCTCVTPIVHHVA
The test can be described thus: IL-17A enzyme-linked immunosorbent assay (competitive ELISA, IL-17A/IL-17Ra receptor-ligand binding). The conditions noted are these: human IL-17A coated plate, human IL-17Ra, read-out: IC50, inhibitory activity of compounds on human IL-17A. Set-up: purchased Sino Biological Inc. 12047-H07B. The method, boiled down:
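Competitive ELISA with plates coated with human IL-17A at 0.2 μg/ml, blocked with 5% skim milk. Compound pre-incubated with IL-17A 10 min at 25 °C, then 16 nM IL-17Ra stock added for 30 min. Bound receptor detected by anti-Fc HRP/TMB, A450. IC50 from variable-slope fit of blank-corrected residual activity.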
In general terms: An ELISA detects its analyte on a solid surface through an enzyme-linked reagent.
For `CCn1nccc1C(=O)N[C@H](C(=O)Nc1cc2c(cc1F)-c1c(n[nH]c1C)CC(=O)N(C)C2)C(C1CC1)C1CC1` [compound 133], the IC50 is at most 50 nM. To `Cc1[nH]nc2c1-c1cc(F)c(NC(=O)[C@@H](NC(=O)c3ccnn3C(C)C)C(C3CC3)C3CC3)cc1CN(C1CC1)C(=O)C2` [compound 136] belongs at most 50 nM; to `CCN1CCc2n[nH]c(C)c2-c2cc(F)c(NC(=O)[C@@H](NC(=O)c3ccnn3C(C)C)C(C3CC3)C3CC3)cc2C1` [compound 156], at most 50 nM. With `Cc1[nH]nc2c1-c1cc(F)c(NC(=O)[C@@H](NC(=O)c3ccnn3C(C)C)C(C3CC3)C3CC3)cc1CN(CC(C)(F)F)C(=O)C2` [compound 148] the figure was at most 50 nM; with `Cc1[nH]nc2c1-c1cc(F)c(NC(=O)[C@@H](NC(=O)c3ccnn3C(C)C)C(C3CC3)C3CC3)cc1CN(CC(C)(F)F)CC2` [compound 160], at most 50 nM. With `Cc1[nH]nc2c1-c1cc(F)c(NC(=O)[C@@H](NC(=O)c3ccnn3C(C)C)C(C3CC3)C3CC3)cc1CN(CC(F)(F)F)C(=O)C2` [compound 152] the figure was at most 50 nM. As to `CCn1nccc1C(=O)N[C@H](C(=O)Nc1cc2c(cc1F)-c1c(n[nH]c1C)CCN(CC(C)(F)F)C2)C(C1CC1)C1CC1` [compound 161], the IC50 is at most 50 nM. To `CCn1nccc1C(=O)N[C@H](C(=O)Nc1ccc2c(c1)COCCc1n[nH]c(C)c1-2)C(C1CC1)C1CC1` [compound 3] belongs at most 50 nM. With `Cc1[nH]nc2c1-c1cc(F)c(NC(=O)[C@@H](NC(=O)c3ccnn3C(C)C)C(C3CC3)C3CC3)cc1CN(C)C(=O)C2` [compound 132] the figure was at most 50 nM; with `Cc1[nH]nc2c1-c1cc(F)c(NC(=O)[C@@H](NC(=O)c3ccnn3C(C)C)C(C3CC3)C3CC3)cc1CN(CC(F)F)C(=O)C2` [compound 144], at most 50 nM. With `CCn1nccc1C(=O)N[C@H](C(=O)Nc1cc2c(cc1F)-c1c(n[nH]c1C)CC(=O)N(C(C)C)C2)C(C1CC1)C1CC1` [compound 151] the figure was at most 50 nM.

On to `CCN1Cc2cc(NC(=O)[C@@H](NC(=O)c3ccnn3CC)C(C3CC3)C3CC3)c(F)cc2-c2c(n[nH]c2C)CC1=O` [compound 143], for which the concentration for half-maximal inhibition (IC50) is at most 50 nM.

As for `Cc1[nH]nc2c1-c1cc(F)c(NC(=O)[C@@H](NC(=O)c3ccnn3C(C)C)C(C3CC3)C3CC3)cc1CN(CC(F)(F)F)CC2` [compound 164], the IC50 is at most 50 nM. To `Cc1[nH]nc2c1-c1cc(F)c(NC(=O)[C@@H](NC(=O)c3ccnn3C(C)C)C(C3CC3)C3CC3)cc1CN(C(C)C)C(=O)C2` [compound 150] belongs at most 50 nM; to `Cc1[nH]nc2c1-c1cc(F)c(NC(=O)[C@@H](NC(=O)c3ccnn3C(C)C)C(C3CC3)C3CC3)cc1CN(CC(F)F)CC2` [compound 158], at most 50 nM. To `CCn1nccc1C(=O)N[C@H](C(=O)Nc1cc2c(cc1F)-c1c(n[nH]c1C)CC(=O)N(CC(F)F)C2)C(C1CC1)C1CC1` [compound 145] belongs at most 50 nM; to `CCn1nccc1C(=O)N[C@H](C(=O)Nc1cc2c(cc1F)-c1c(n[nH]c1C)CC(=O)N(CC(C)(F)F)C2)C(C1CC1)C1CC1` [compound 149], at most 50 nM; to `CCn1nccc1C(=O)N[C@H](C(=O)Nc1cc2c(cc1F)-c1c(n[nH]c1C)CCN(CC(F)F)C2)C(C1CC1)C1CC1` [compound 159], at most 50 nM. With `Cc1[nH]nc2c1-c1cc(F)c(NC(=O)[C@@H](NC(=O)c3ccnn3C(C)C)C(C3CC3)C3CC3)cc1CN(C1CC1)CC2` [compound 165] the figure was at most 50 nM; with `Cc1[nH]nc2c1-c1ccc(NC(=O)[C@@H](NC(=O)c3ccnn3C3CC3)C(C3CC3)C3CC3)cc1COCC2` [compound 6], at most 50 nM. For the compound `Cc1[nH]nc2c1-c1cnc(NC(=O)[C@@H](NC(=O)c3ccnn3C[C@@H]3C[C@H]3F)C(C3CC3)C3CC3)cc1COCC2` [compound 125], the IC50 is at most 50 nM. As to `Cc1[nH]nc2c1-c1cc(F)c(NC(=O)[C@@H](NC(=O)c3ccnn3C(C)C)C(C3CC3)C3CC3)cc1CN(CC1CC1)C(=O)C2` [compound 153], the IC50 was at most 50 nM. With `CCN1Cc2cc(NC(=O)[C@@H](NC(=O)c3ccnn3C(C)C)C(C3CC3)C3CC3)c(F)cc2-c2c(n[nH]c2C)CC1=O` [compound 142] the figure was at most 50 nM.
